Earlier results in paper PMC3389233 (Bioorganic & medicinal chemistry, 2012).
Where two headings read alike, the source gives them in different places.

Target: HPPK

Row | Compound | Kd (MgATP binding to the enzyme first) [µM] | Kd (rapid addition of HP after MgATP binding)
1 | Nc1ncnc2c1ncn2[C@@H]1O[C@H](COP(=O)(O)OP(=O)(O)OP(=O)(O)O)[C@@H](O)[C@H]1O [MgATP] | 2.6 to 4.5 | –
2 | Nc1nc2c(c(=O)[nH]1)N=C(CO)CN2 [HP, 6-hydroxymethyl-7,8-dihydropterin] | – | sub-µM range
